{"source": "patent EP0896965A1", "about": "“Inhibitors of G-protein-beta, gamma subumit function” (BOEHRINGER MANNHEIM GMBH, priority 1997, dated 1999)", "key": {"[1]": {"system": "β-adrenergic receptor kinase", "assay": "Inhibition of rhodopsin phosphorylation by β-adrenergic receptor kinase in the presence of Gβγ", "type": "biochemical", "conditions": "peptide at 100 µM; 1 µM rhodopsin, 2.5 nM βARK-1, 20 nM Gβγ", "protocol": "(§1) • Figure 1 Inhibition of GTPase activity of Go by His6-tagged phosducin and its N-terminally truncated variants. […] The size of the short form of PhLP is indicated by the line on the top. Analysis with nonlinear curve fitting gave the following IC50-values: phosducin 15±1 nM, phosducin(64-246) 33±3 nM, phosducin( 138-246) 25±2 nM, phosducin(172-246) 95±13 nM, phosducin(204-246) 240±20 nM. Data are mean ± SEM of 3 independent experiments • Figure 2 Direct binding of His6-tagged phosducin and phosducin(204-246) to Gβγ. […] After washing, the Gβγ retained in the pellet was detected by SDS-polyacrylamide gel electrophoresis and Western blotting with antibodies directed against Gβ. • Figure 3 Inhibition of G0GTPase activity by synthetic peptides (top) derived from the C-terminus of phosducin. […] The activity of βARK was determined using rhodopsin in rod outer segments the substrate as in Schroeder and Lohse 1996. […] Phospholipase C-β2 activity was determined with a truncated version of PLC-β2 (PLC-mut) as described by Dietrich et al. (1994). […] Activity is expressed as pmoles of inositol 1.4.5-triphosphate formed per minute. • Figure 5 Amide region of a 500 MHz WATERGATED NOESY spectrum of the peptide phosducin(204-231) in 10 mM Phosphate buffer containing 100 mM NaCI and 10% D2O at pH = 6.5 and 277 K. The mixing time used was 250 ms. […]"}, "phospholipase C-β2": {"system": "phospholipase C-β2", "assay": "Inhibition of Gβγ-stimulated phospholipase C-β2 activity", "type": "biochemical", "conditions": "peptide at 100 µM; Gβγ 600 nM", "protocol": "as §1"}}, "note": "No end group written: not given here.", "data": [{"sequence": "GDVESFLNEYGLLPEKEM [phosducin(215-232)]", "values": [{"measurement": "antagonism of the stimulatory effects of Gβγ on the activity of the β-adrenergic receptor kinase", "setting": "[1]", "result": "antagonized"}, {"measurement": "antagonism of the stimulatory effects of Gβγ on the activity of phospholipase Cβ2", "setting": "phospholipase C-β2", "result": "antagonized"}]}]}
